Results on six compounds are retold here after paper PMC7947880 (Molecular Biology and Evolution, 2020).

The target of test [1] is T1, CYP51fx (sterol 14α-demethylase) (Methylococcus capsulatus, UniProt Q603T8).
T1 sequence (Q603T8 1-551): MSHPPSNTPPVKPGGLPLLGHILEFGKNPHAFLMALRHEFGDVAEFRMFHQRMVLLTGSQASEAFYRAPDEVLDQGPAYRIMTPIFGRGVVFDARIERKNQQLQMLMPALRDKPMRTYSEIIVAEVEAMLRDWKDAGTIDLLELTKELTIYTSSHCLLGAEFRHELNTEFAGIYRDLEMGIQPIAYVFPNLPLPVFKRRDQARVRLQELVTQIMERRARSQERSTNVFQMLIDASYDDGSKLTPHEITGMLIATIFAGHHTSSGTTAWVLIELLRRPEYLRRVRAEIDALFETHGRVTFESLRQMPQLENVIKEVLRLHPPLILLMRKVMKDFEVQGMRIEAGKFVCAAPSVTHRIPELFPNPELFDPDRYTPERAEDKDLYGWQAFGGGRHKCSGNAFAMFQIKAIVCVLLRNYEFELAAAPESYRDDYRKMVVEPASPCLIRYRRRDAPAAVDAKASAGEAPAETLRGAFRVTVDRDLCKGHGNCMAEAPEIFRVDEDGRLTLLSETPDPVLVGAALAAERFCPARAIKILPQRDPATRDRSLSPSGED
Put plainly: UV-visible spectral titration. Type of test: binding.

In test [2] the target is T1, CYP51fx (sterol 14α-demethylase). Put plainly: UV-visible spectral titration. Type of test: binding. The source holds these as a separate data set.
Test [3] has the same target. Put plainly: UV-visible spectral titration. Type of test: binding. The source holds these as a separate data set.
Test [4] shares this target. Type of test: biochemical.

Like-named read-outs stand apart in the source and are kept apart here.

`C=C(CC[C@@H](C)[C@H]1CC[C@@]2(C)C3=C(CC[C@]12C)[C@@]1(C)CC[C@H](O)C(C)(C)[C@@H]1CC3)C(C)C` [eburicol] came in with a Kd in test [1] of 48 ± 4 nM. In the case of `CC(C)=CCC[C@@H](C)[C@H]1CC[C@@]2(C)[C@@H]3CC=C4[C@@H](CC[C@H](O)C4(C)C)[C@]3(C)CC[C@]12C` [cucurbitadienol], the Kd in test [2] worked out at 670 nM. In turn, `CC(C)=CCC[C@@H](C)[C@H]1CC[C@@]2(C)[C@@H]3CC[C@H]4C(C)(C)[C@@H](O)CC[C@]4(C)C3=CC[C@]12C` [parkeol] showed a Kd in test [3] of 260 nM. Compound `CC(C)=CCC[C@@H](C)[C@H]1CC[C@@]2(C)C3=C(CC[C@]12C)[C@@]1(C)CC[C@H](O)C(C)(C)[C@@H]1CC3` [lanosterol] returned a Kd in test [1] of 94 ± 11 nM.

With `CC(C)=CCC[C@@H](C)[C@H]1CC[C@@]2(C)[C@@H]3CC[C@H]4C(C)(C)[C@@H](O)CC[C@@]45C[C@@]35CC[C@]12C` [cycloartenol], the affinity in test [3], expressed as Kd, was 460 nM.

With `C=C(CC[C@@H](C)[C@H]1CC[C@@]2(C)C3=C(CC[C@]12C)[C@@]1(C)CC[C@H](O)[C@@H](C)[C@@H]1CC3)C(C)C` [obtusifoliol], in test [4], the “reconstituted 14α-demethylase turnover of radiolabeled sterol with E. coli flavo” value amounted to 1.2 min⁻¹.

Broadly, the Kd is a measure of binding affinity in units of concentration. A low value points to a tighter complex.
